Consider three compounds from US10920248B2, “Method for mass-producing viniferin using stevioside from cell culture of grapevine tissue” (KOREA RESEARCH INSTITUTE OF BIOSCIENCE AND BIOTECHNOLOGY, priority 2016, dated 2021).

Assay [1] relates to resveratrol biosynthesis gene (STS, ROMT). The assay can be described thus: Transcription expression analysis (RT-PCR) of resveratrol biosynthesis genes after activity-inducing agent treatment of grape callus liquid culture. The assay is classed as cell-based, Vitis vinifera L. cv Campbell Early. To be noted: FIG. 2; for expression of the two genes (STS, ROMT): grape callus in MS1D liquid medium, 24 hours after treatment, RT-PCR. The method, then: In order to establish a production system of resveratrol from grape callus, transcription expression analysis was performed through a liquid culture of stabilized grape callus derived in Example 1 as described above. It was performed in which they were cultured in MS1D (4.4 g of MS, 30 g of sucrose, 0.5 g of MES, 0.1 g of Miyo-inositol, 0.4 mg thiamine HCl, and 1 mg/L of 2,4-D), which is called a Murashige & Skoog (MS) medium containing 1 mg/L of 2,4-D, liquid medium at 25° C. and 90 rpm for 7 days, followed by treatment with an activity-inducing agent. After 24 hours, total RNA was isolated from the grape callus (Kim C Y et al. 2010, Physiologia plantarum 139: 259-261). cDNA was synthesized from the isolated total RNA (5 μg) using First-Strand cDNA Synthesis Kit (Fermantas, Canada) as described in the instruction. The synthesized cDNA (20 μl) was diluted 2.5 times and then subjected to RT-PCR using 2 μl as a template for genes related to resveratrol and pterostilbene biosynthesis from the grape callus. PCR amplification was carried out by denaturation at 94° C. for 2 minutes, 25 cycles of at 95° C. for 30 seconds, 50° C. for 40 seconds, and 72° C. for 1 minute, and a final extension reaction at 72° C. for 10 minutes. The grape resveratrol, pterostilbene biosynthesis gene, and grapactin RT-PCR primers used for this experiment were as follows: […]
Various activity-inducing agents were used for the treatment so as to promote the production of stilbene compound. The activity-inducing agents used herein were methyl jasmonate (MeJA), abscisic acid (ABA), salicylic acid (SA), ethephon, flagellin 22 (Flg22), methyl viologen (MV), and chitosan. The results confirmed that the expression of the two genes increased when MeJA, SA, and Flg22 were used and that the gene expression was the highest when MeJA was used (see FIG. 2).

Assay [2] relates to grape callus. The assay can be described thus: Production of stilbene compounds in grape callus culture treated with activity-inducing agent and solubilizing agent, HPLC analysis of culture extract. The assay is classed as cell-based, Vitis vinifera L. cv Campbell Early. The following applies: with 100 μM MeJA, 7-day grape callus culture medium, 50 mM stevioside, FIG. 3. The method, then: Production of stilbene compounds was induced using the activity-inducing agent (100 μM MeJA) selected in Example 2 as described above. 20 ml of MS was inoculated with 2 g of grape callus, then cultured in a 125 ml flask for 7 days. Then, it was treated with 100 μM MeJA to obtain grape callus after 5 days. HPLC analysis was performed on the extract thereof. […] The experiment was performed to increase the production rate by solubilizing stilbene compound produced by treating with stevioside. As described above, 7-day grape callus culture was treated with 5 mM, 10 mM, 25 mM, and 50 mM stevioside at different concentrations or was treated with 100 μM MeJA and 5 mM, 10 mM, 2 5 mM, and 50 mM stevioside at different concentrations. After 5 days of culture, the samples were separated into callus and callus culture using a filter. The separated callus was filtered, followed by dehydration. The callus was frozen with liquid nitrogen and stored at −80° C. until extraction. The callus culture extract was directly extracted from the callus culture sample without storage so as to be used. […]

As for `O=C(O)c1ccccc1O` [SA, salicylic acid], the “expression of the two genes (STS, ROMT)” value in assay [1] was “increased”.

As for `C=C1C[C@@]23CC[C@H]4[C@@](C)(CCC[C@@]4(C)C(=O)O[C@@H]4O[C@H](CO)[C@@H](O)[C@H](O)[C@H]4O)[C@@H]2CC[C@]1(O[C@@H]1O[C@H](CO)[C@@H](O)[C@H](O)[C@H]1O[C@@H]1O[C@H](CO)[C@@H](O)[C@H](O)[C@H]1O)C3` [stevioside], the “content of the stilbene compound compared to the group untreated with stevioside” value in assay [2] is on record as “significantly increased”.

As for `CC/C=C\CC1C(=O)CCC1CC(=O)OC` (stereo not shown) [MeJA, methyl jasmonate], the “gene expression compared among activity-inducing agents” value in assay [1] (compared with ABA, SA, ethephon, Flg22, MV, chitosan) is listed as “highest”. Besides, in assay [1], the “expression of the two genes (STS, ROMT)” value is listed as “increased”.
